inhibition, IC50 and LD50 data for 34 molecules are collected here from ChEMBL document CHEMBL4828748, “Design, synthesis, and pharmacological evaluation of sinomenine derivatives on rings A and C: Novel compounds screening for aplastic anemia targeting on cytotoxic T lymphocyte” (Eur J Med Chem, 2021).

For data set [1], the system named is Peritoneal macrophage. Kind of data set: Inhibition of LPS-induced NO production in C57BL/6J mouse peritoneal macrophages at 10 uM measured after 24 hrs in presence of LPS by Griess reagent based assay relative to control. Type of data set: functional. (Nitrite, measured by Griess reagent, commonly stands in for NO production.)
Data set [2] can be described thus: Inhibition of mouse CTLL-2 cells activity at 10 uM incubated for 24 hrs. Type of data set: functional.
Data set [3] in a line: Cytotoxicity against C57BL/6J mouse peritoneal macrophages assessed as reduction of cell viability at 10 uM incubated for 24 hrs in presence of LPS by MTT assay. Type of data set: cell-based, Peritoneal macrophage. On the technique in general: Tetrazolium dyes change colour on reduction, which living cells bring about.
Data set [4] is described as follows: Inhibition of mouse CTLL-2 cells activity incubated for 24 hrs. It counts as functional, cell-based.
Data set [5] can be described thus: Acute toxicity in po dosed Kunming mouse. Type of data set: organism-based. To be noted: in vivo.
A short description of data set [6]: Cytotoxicity against C57BL/6J mouse peritoneal macrophages assessed as reduction of cell viability at 1 uM incubated for 24 hrs in presence of LPS by MTT assay. It counts as cell-based, Peritoneal macrophage.
Data set [7] concerns Peritoneal macrophage. Kind of data set: Inhibition of LPS-induced NO production in C57BL/6J mouse peritoneal macrophages at 1 uM measured after 24 hrs in presence of LPS by Griess reagent based assay relative to control. Type of data set: functional.

pIC50: −log10 of the molar value.

For the molecule `CCCCCCCC/C=C/CCCCCCCCCCCC(=O)OCc1cc(OC)c(OC(=O)CCCCCCCCCCC/C=C/CCCCCCCC)c2c1C[C@H]1[C@H]3C=C(OC)C(=O)C[C@@]23CCN1C`, the inhibition (commonly the drop in the measured response relative to a control, in per cent) at 10 µM in data set [1] worked out at 1.1%; in data set [2], 6.7%. Further, the inhibition at 24 h, 10 µM in data set [3] stood at 0.2%.
In the case of `CCCCCCCCCCCCCC(=O)OCc1cc(OC)c(OC(=O)CCCCCCCCCCCCC)c2c1C[C@H]1[C@H]3C=C(OC)C(=O)C[C@@]23CCN1C`, the inhibition at 10 µM in data set [1] is 10.1%; in data set [2], -0.9%. In data set [3], the inhibition at 24 h, 10 µM was 2.5%.
With `CCCCCCCC/C=C/CCCCCCCCCCCC(=O)Oc1c(OC)cc(C=O)c2c1[C@@]13CCN(C)[C@@H](C2)[C@H]1C=C(OC)C(=O)C3`, the inhibition at 10 µM in data set [1] is 18.6%; in data set [2] it was 29.6%. The inhibition at 24 h, 10 µM in data set [3] was 0.5%.
For `COc1ccc2c(c1O)[C@@]13CCN(C)[C@@H](C2)[C@H]1C[C@@H](OC)C(=O)C3`, in that order: 6.5%, 5.8% and 6.5%.
As for `CCCCCCCCCCCC(=O)OCc1cc(OC)c(OC(=O)CCCCCCCCCCC)c2c1C[C@H]1[C@H]3C=C(OC)C(=O)C[C@@]23CCN1C`, the figures for the inhibition at 10 µM in data set [1] and in data set [2] were 3.4% and 6.8%, respectively. Moreover, in data set [3], the inhibition at 24 h, 10 µM was determined as 6.2%.
For `COC1=C[C@@H]2[C@@H]3Cc4c(C=O)cc(OC)c(OC(=O)/C=C/c5ccccc5)c4[C@]2(CCN3C)CC1=O`, in that order: 21.6%, 4.7% and 0.6%.
For `COC1=C[C@@H]2[C@@H]3Cc4ccc(OC)c(OC(=O)/C=C/c5ccccc5)c4[C@]2(CCN3C)CC1=O`, in that order: 61.1%, 5.4% and -3.3%.
For `C/C=C/C=C/C(=O)Oc1c(OC)ccc2c1[C@@]13CCN(C)[C@@H](C2)[C@H]1C=C(OC)C(=O)C3`, in that order: 46.9%, 14.3% and 0.3%.
For the molecule `COC1=C[C@@H]2[C@@H]3Cc4c(C=O)cc(OC)c(OC(C)=O)c4[C@]2(CCN3C)CC1=O`, the inhibition at 10 µM in data set [1] came out at 0.6%; in data set [2], 10.3%. Also, the inhibition at 24 h, 10 µM in data set [3] was determined as 0.2%.
For `COc1ccc2c(c1OC(=O)c1cccnc1)[C@@]13CCN(C)[C@@H](C2)[C@H]1C[C@@H](OC)C(=O)C3`, the inhibition at 10 µM in data set [1] stood at 11.2%; in data set [2] it was 9.1%. Moreover, the inhibition at 24 h, 10 µM in data set [3] came to 3.1%.
For `C/C=C/C=C/C(=O)Oc1c(OC)cc(C=O)c2c1[C@@]13CCN(C)[C@@H](C2)[C@H]1C=C(OC)C(=O)C3`, in that order: 46%, 14% and 1.4%.
For `CCCCCCCCCCCCCCCC(=O)Oc1c(OC)cc(C=O)c2c1[C@@]13CCN(C)[C@@H](C2)[C@H]1C=C(OC)C(=O)C3`, in that order: 21%, 32.2% and -1.9%.
`CCCCCCCCCCCCCCCC(=O)OCc1cc(OC)c(OC(=O)CCCCCCCCCCCCCCC)c2c1C[C@H]1[C@H]3C=C(OC)C(=O)C[C@@]23CCN1C`: the inhibition at 10 µM in data set [1] was -2.4%; in data set [2] it was 20.5%. The inhibition at 24 h, 10 µM in data set [3] came out at 5.3%.
Turning to `CCCCCCCCCCCCCC(=O)Oc1c(OC)ccc2c1[C@@]13CCN(C)[C@@H](C2)[C@H]1C=C(OC)C(=O)C3`, the inhibition at 10 µM in data set [1] stood at 4.3%; in data set [2], 88.1%. For the same molecule, the inhibition at 24 h, 10 µM in data set [3] amounted to 2.7%. For the same molecule, the negative logarithm of the IC50 (pIC50) (in general, the negative decadic logarithm of the IC50, by convention in mol/L) in data set [4] was 5.37.
For `CCCCCCCCCCCCCC(=O)Oc1c(OC)cc(C=O)c2c1[C@@]13CCN(C)[C@@H](C2)[C@H]1C=C(OC)C(=O)C3`, in that order: 33.9%, 90.8%, 0.5% and 5.43.
`COC1=C[C@@H]2[C@@H]3Cc4c(C=O)cc(OC)c(O)c4[C@]2(CCN3C)CC1=O`: the inhibition at 10 µM came out at 4.2% in data set [1] and 3.5% in data set [2]. Besides, the inhibition at 24 h, 10 µM in data set [3] was 2.5%.
For `COc1ccc2c(c1OC(C)=O)[C@@]13CCN(C)[C@@H](C2)[C@H]1C[C@@H](OC)C(=O)C3`, in that order: 5.6%, 12.5% and 3.2%.
For `CCCCCCCCCCCC(=O)Oc1c(OC)ccc2c1[C@@]13CCN(C)[C@@H](C2)[C@H]1C[C@@H](OC)C(=O)C3`, the inhibition at 10 µM in data set [1] worked out at 5%; in data set [2] it was 96.7%. Moreover, the inhibition at 24 h, 10 µM in data set [3] was 3.1%. This molecule also had a pIC50 in data set [4] of 5.36.
Regarding `COC1=C[C@@H]2[C@@H]3Cc4c(CO)cc(OC)c(O)c4[C@]2(CCN3C)CC1=O`, the inhibition at 10 µM in data set [1] was 3.6%; in data set [2], 6.1%. Moreover, the inhibition at 24 h, 10 µM in data set [3] came to 1.2%.
Take `COC1=C[C@@H]2[C@@H]3Cc4ccc(OC)c(O)c4[C@]2(CCN3C)CC1=O` [SINOMENINE]: the inhibition at 10 µM in data set [1] worked out at 7.5%; in data set [2] it was 2.8%. In addition, in data set [5], the LD50 (in general, the dose at which mortality reaches 50%) came to 1100 mg/kg. Besides, the inhibition at 24 h, 10 µM in data set [3] was determined as 1.3%.
With `C[C@@H]1C[C@H]2[C@@H]3CCC4=CC(=O)C=C[C@]4(C)[C@@]3(F)[C@@H](O)C[C@]2(C)[C@@]1(O)C(=O)CO` [DEXAMETHASONE], the inhibition at 24 h, 1 µM in data set [6] amounted to 17%. Besides, the inhibition at 1 µM in data set [7] was determined as 62.8%.
On to `COc1ccc2c(c1OC(=O)/C=C/c1ccccc1)[C@@]13CCN(C)[C@@H](C2)[C@H]1C[C@@H](OC)C(=O)C3`, for which the inhibition at 10 µM in data set [1] was found to be 57.4%; in data set [2], 11.6%. Also, the inhibition at 24 h, 10 µM in data set [3] was 4.8%.
For `C=CCCCCCCCCC(=O)Oc1c(OC)cc(C=O)c2c1[C@@]13CCN(C)[C@@H](C2)[C@H]1C=C(OC)C(=O)C3`, in that order: 11.6%, 23.4% and 1.3%.
On to `C/C=C/C[C@@H](C)[C@@H](O)[C@H]1C(=O)N[C@@H](CC)C(=O)N(C)CC(=O)N(C)[C@@H](CC(C)C)C(=O)N[C@@H](C(C)C)C(=O)N(C)[C@@H](CC(C)C)C(=O)N[C@@H](C)C(=O)N[C@H](C)C(=O)N(C)[C@@H](CC(C)C)C(=O)N(C)[C@@H](CC(C)C)C(=O)N(C)[C@@H](C(C)C)C(=O)N1C` [CYCLOSPORINE], for which the inhibition at 10 µM in data set [2] came to 96.8%.
On to `CCCCCCCCCCCCCC(=O)Oc1c(OC)ccc2c1[C@@]13CCN(C)[C@@H](C2)[C@H]1C[C@@H](OC)C(=O)C3`, for which the figures for the inhibition at 10 µM in data set [1] and in data set [2] were 46.2% and 98.3%, respectively. Further, the inhibition at 24 h, 10 µM in data set [3] was determined as 4.6%. The molecule further showed a pIC50 in data set [4] of 5.17.
With `CCCCCCCC/C=C/CCCCCCCCCCCC(=O)Oc1c(OC)ccc2c1[C@@]13CCN(C)[C@@H](C2)[C@H]1C=C(OC)C(=O)C3`, the inhibition at 10 µM is 3.5% in data set [1] and 32.6% in data set [2]. Moreover, the inhibition at 24 h, 10 µM in data set [3] worked out at 0.4%.
On to `CCCCCCCCCCCC(=O)Oc1c(OC)cc(C=O)c2c1[C@@]13CCN(C)[C@@H](C2)[C@H]1C=C(OC)C(=O)C3`, for which the inhibition at 10 µM in data set [1] was 2.2%; in data set [2], 25.2%. Besides, the inhibition at 24 h, 10 µM in data set [3] is 0%.
For the molecule `C/C=C/C=C/C(=O)OCc1cc(OC)c(OC(=O)/C=C/C=C/C)c2c1C[C@H]1[C@H]3C=C(OC)C(=O)C[C@@]23CCN1C`, the results for the inhibition at 10 µM in data set [1] and in data set [2] were 90.8% and 6.2%, respectively. The inhibition at 24 h, 10 µM in data set [3] worked out at 6.1%.
Regarding `C=CCCCCCCCCC(=O)Oc1c(OC)ccc2c1[C@@]13CCN(C)[C@@H](C2)[C@H]1C=C(OC)C(=O)C3`, the inhibition at 10 µM was 94% in data set [1] and 52.8% in data set [2]. The inhibition at 24 h, 10 µM in data set [3] was 8.8%. The same molecule showed a pIC50 in data set [4] of 5.12.
In the case of `C/C=C/C=C/C(=O)Oc1c(OC)ccc2c1[C@@]13CCN(C)[C@@H](C2)[C@H]1C[C@@H](OC)C(=O)C3`, the inhibition at 10 µM in data set [1] stood at 40.7%; in data set [2], 1.1%. Further, the inhibition at 24 h, 10 µM in data set [3] worked out at 5.1%.
For `CCCCCCCCCCCCCCCC(=O)Oc1c(OC)ccc2c1[C@@]13CCN(C)[C@@H](C2)[C@H]1C[C@@H](OC)C(=O)C3`, in that order: 93.5%, 45.3% and 1.7%.
In the case of `COC1=C[C@@H]2[C@@H]3Cc4ccc(OC)c(OC(=O)c5cccnc5)c4[C@]2(CCN3C)CC1=O`, the figures for the inhibition at 10 µM in data set [1] and in data set [2] were 14% and 3.2%, respectively. Moreover, the inhibition at 24 h, 10 µM in data set [3] stood at 0.8%.
Turning to `CCCCCCCCCCCC(=O)Oc1c(OC)ccc2c1[C@@]13CCN(C)[C@@H](C2)[C@H]1C=C(OC)C(=O)C3`, the values for the inhibition at 10 µM in data set [1] and in data set [2] were 42.7% and 98.7%, respectively. The inhibition at 24 h, 10 µM in data set [3] stood at 4.4%. Further, the pIC50 in data set [4] is 5.42.
Consider `C=CCCCCCCCCC(=O)OCc1cc(OC)c(OC(=O)CCCCCCCCC=C)c2c1C[C@H]1[C@H]3C=C(OC)C(=O)C[C@@]23CCN1C`, for which the inhibition at 10 µM in data set [1] is -0.9%; in data set [2], 33.9%. In addition, in data set [3], the inhibition at 24 h, 10 µM worked out at 9.3%.
